Reference: ChEMBL document CHEMBL1909046, “DrugMatrix in vitro pharmacology data”

How the values were obtained:
[1] = molecular target: T1, Alpha-2A adrenergic receptor (Homo sapiens, UniProt P08913); format: cell membranes, Sf9, Membrane; settings: sf9; further: in other assays of this panel Not Active means under 50% inhibition at 10 µM
T1 sequence (P08913 whole entry): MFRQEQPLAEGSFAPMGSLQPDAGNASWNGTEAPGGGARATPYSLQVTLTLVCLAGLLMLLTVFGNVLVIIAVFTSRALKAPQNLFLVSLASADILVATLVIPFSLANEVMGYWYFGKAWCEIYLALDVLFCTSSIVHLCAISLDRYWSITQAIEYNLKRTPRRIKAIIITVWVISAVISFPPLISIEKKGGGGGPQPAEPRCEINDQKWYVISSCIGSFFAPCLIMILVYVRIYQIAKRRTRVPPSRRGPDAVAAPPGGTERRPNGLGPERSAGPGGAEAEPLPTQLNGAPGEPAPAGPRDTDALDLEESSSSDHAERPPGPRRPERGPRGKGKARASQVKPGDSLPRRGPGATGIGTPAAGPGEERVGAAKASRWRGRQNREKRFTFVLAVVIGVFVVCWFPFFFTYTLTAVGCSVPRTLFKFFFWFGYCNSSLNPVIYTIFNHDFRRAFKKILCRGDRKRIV

Substance-P receptor = Substance-P receptor (Homo sapiens, UniProt P25103); format: cell membranes, Membrane; settings: cho; further: in other assays of this panel Not Active means under 50% inhibition at 10 µM
Sequence of Substance-P receptor (P25103 whole entry): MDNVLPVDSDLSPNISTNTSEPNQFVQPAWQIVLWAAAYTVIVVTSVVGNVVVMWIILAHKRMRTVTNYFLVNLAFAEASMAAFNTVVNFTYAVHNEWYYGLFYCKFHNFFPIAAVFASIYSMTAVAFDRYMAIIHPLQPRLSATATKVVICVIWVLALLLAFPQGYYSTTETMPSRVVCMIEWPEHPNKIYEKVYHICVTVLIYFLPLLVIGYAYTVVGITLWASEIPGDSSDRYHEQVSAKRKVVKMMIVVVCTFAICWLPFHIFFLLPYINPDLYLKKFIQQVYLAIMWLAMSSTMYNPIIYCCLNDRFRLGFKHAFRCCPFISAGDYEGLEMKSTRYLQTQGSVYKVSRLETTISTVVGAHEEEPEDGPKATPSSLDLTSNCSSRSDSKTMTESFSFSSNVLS

Histamine H2 receptor = Histamine H2 receptor (Homo sapiens, UniProt P25021); format: cell membranes, CHO-K1, Membrane; settings: cho-k1; further: in other assays of this panel Not Active means under 50% inhibition at 10 µM
Sequence of Histamine H2 receptor (P25021 whole entry): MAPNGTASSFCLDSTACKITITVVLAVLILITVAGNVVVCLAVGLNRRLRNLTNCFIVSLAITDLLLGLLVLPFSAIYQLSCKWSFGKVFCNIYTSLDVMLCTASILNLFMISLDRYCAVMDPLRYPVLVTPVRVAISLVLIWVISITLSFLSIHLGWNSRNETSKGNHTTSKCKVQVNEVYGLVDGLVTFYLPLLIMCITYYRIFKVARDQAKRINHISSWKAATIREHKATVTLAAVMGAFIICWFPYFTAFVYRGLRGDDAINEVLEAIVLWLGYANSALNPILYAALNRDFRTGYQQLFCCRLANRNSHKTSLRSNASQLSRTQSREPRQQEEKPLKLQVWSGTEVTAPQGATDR

Mu-type opioid receptor = Mu-type opioid receptor (Homo sapiens, UniProt P35372); assay: DRUGMATRIX: Opiate mu (OP3, MOP) radioligand binding (ligand: [3H] Diprenorphine); format: cell membranes, CHO-K1, Membrane; settings: cho-k1; Not Active = under 50% inhibition at 10 µM
Sequence of Mu-type opioid receptor (P35372 whole entry): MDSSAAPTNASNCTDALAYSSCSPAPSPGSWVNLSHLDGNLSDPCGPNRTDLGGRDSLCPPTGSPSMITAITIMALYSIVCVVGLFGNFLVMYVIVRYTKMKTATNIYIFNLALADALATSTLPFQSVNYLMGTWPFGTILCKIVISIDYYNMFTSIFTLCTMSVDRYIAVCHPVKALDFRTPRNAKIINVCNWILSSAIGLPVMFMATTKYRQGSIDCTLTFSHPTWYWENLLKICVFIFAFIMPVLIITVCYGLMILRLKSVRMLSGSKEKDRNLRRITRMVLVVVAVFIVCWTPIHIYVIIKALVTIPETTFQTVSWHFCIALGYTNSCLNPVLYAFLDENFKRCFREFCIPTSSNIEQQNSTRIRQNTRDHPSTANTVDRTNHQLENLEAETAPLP

[2] = molecular target: Tyrosine-protein kinase Lck (Homo sapiens, UniProt P06239); assay: DRUGMATRIX: Protein Tyrosine Kinase, LCK enzyme inhibition (substrate: Poly(Glu:Tyr)); format: cell-based, Insect cells; settings: insect cells; Not Active = under 50% inhibition at 10 µM
Sequence of Tyrosine-protein kinase Lck (P06239 whole entry): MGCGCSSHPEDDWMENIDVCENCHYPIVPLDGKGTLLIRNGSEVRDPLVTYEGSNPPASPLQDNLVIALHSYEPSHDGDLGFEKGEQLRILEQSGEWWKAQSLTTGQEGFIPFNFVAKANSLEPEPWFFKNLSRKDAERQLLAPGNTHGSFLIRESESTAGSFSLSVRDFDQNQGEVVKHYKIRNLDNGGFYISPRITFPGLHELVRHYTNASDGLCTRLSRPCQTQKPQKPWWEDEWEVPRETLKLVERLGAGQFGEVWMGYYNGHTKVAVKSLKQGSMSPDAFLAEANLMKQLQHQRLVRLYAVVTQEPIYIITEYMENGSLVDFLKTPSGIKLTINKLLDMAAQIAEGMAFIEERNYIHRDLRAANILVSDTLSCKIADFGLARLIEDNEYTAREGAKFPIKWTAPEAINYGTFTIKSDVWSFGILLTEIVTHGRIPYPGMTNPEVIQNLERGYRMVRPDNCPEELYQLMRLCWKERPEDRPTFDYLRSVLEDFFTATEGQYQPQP

Measured: IC50

Oc1ccc(OCc2ccccc2)cc1 [MONOBENZONE]
Not Active: [1] | Substance-P receptor | Histamine H2 receptor | Mu-type opioid receptor | [2]

CC(C)(Oc1ccc(C2CCCc3ccccc32)cc1)C(=O)O (stereo not given) [NAFENOPIN]
Not Active: [1] | Substance-P receptor | Histamine H2 receptor | Mu-type opioid receptor | [2]

COc1ccc2cc([C@H](C)C(=O)O)ccc2c1 [NAPROXEN]
Not Active: [1] | Substance-P receptor | Histamine H2 receptor | Mu-type opioid receptor | [2]

CC(C)[C@H]1CC[C@H](C(=O)N[C@H](Cc2ccccc2)C(=O)O)CC1 [NATEGLINIDE]
Not Active: [1] | Substance-P receptor | Histamine H2 receptor | Mu-type opioid receptor | [2]

CCN[C@@H]1C[C@H](N)[C@@H](O[C@H]2OC(CN)=CC[C@H]2N)[C@H](O)[C@H]1O[C@H]1OC[C@](C)(O)[C@H](NC)[C@H]1O [NETILMICIN]
Not Active: [1] | Substance-P receptor | Histamine H2 receptor | Mu-type opioid receptor | [2]

COC(=O)C1=C(C)NC(C)=C(C(=O)OCC(C)C)C1c1ccccc1[N+](=O)[O-] (stereo not given) [NISOLDIPINE]
Not Active: [1] | Substance-P receptor | Histamine H2 receptor | Mu-type opioid receptor | [2]

CCOC(=O)C1=C(C)NC(C)=C(C(=O)OC)C1c1cccc([N+](=O)[O-])c1 (stereo not given) [NITRENDIPINE]
Not Active: [1] | Substance-P receptor | Histamine H2 receptor | Mu-type opioid receptor | [2]

C#C[C@]1(OC(C)=O)CC[C@H]2[C@@H]3CCC4=CC(=O)CC[C@@H]4[C@H]3CC[C@@]21C [NORETHINDRONE ACETATE]
Not Active: [1] | Substance-P receptor | Histamine H2 receptor | Mu-type opioid receptor | [2]

COc1ccc2[nH]c([S+]([O-])Cc3ncc(C)c(OC)c3C)nc2c1 (stereo not given) [OMEPRAZOLE]
Not Active: [1] | Substance-P receptor | Histamine H2 receptor | Mu-type opioid receptor | [2]

Cc1nccn1CC1CCc2c(c3ccccc3n2C)C1=O (stereo not given) [ONDANSETRON]
Not Active: [1] | Substance-P receptor | Histamine H2 receptor | Mu-type opioid receptor | [2]

CCn1cc(C(=O)O)c(=O)c2cc(F)c(N3CCN(C)CC3)cc21 [PEFLOXACIN]
Not Active: [1] | Substance-P receptor | Histamine H2 receptor | Mu-type opioid receptor | [2]

CCCCOc1ccc(OCCCN2CCOCC2)cc1 [PRAMOXINE]
Not Active: [1] | Substance-P receptor | Histamine H2 receptor | Mu-type opioid receptor | [2]

O=C(C1CCCCC1)N1CC(=O)N2CCc3ccccc3C2C1 (stereo not given) [PRAZIQUANTEL]
Not Active: [1] | Substance-P receptor | Histamine H2 receptor | Mu-type opioid receptor | [2]

CCN(CC)CCOC(=O)c1ccc(N)cc1 [PROCAINE]
Not Active: [1] | Substance-P receptor | Histamine H2 receptor | Mu-type opioid receptor | [2]

CCCN(CCC)C(=O)C(CCC(=O)O)NC(=O)c1ccccc1 (stereo not given) [PROGLUMIDE]
Not Active: [1] | Substance-P receptor | Histamine H2 receptor | Mu-type opioid receptor | [2]

NC(=O)c1cnccn1 [PYRAZINAMIDE]
Not Active: [1] | Substance-P receptor | Histamine H2 receptor | Mu-type opioid receptor | [2]

OC(CCN1CCCCC1)(c1ccccc1)C1CCCCC1 (stereo not given) [TRIHEXYPHENIDYL]
Not Active: [1] | Substance-P receptor | Histamine H2 receptor | Mu-type opioid receptor | [2]

Cc1cc2cc3c(C)cc(=O)oc3c(C)c2o1 [TRIOXSALEN]
Not Active: [1] | Substance-P receptor | Histamine H2 receptor | Mu-type opioid receptor | [2]

CCCC(CCC)C(=O)O [VALPROIC ACID]
Not Active: [1] | Substance-P receptor | Histamine H2 receptor | Mu-type opioid receptor | [2]

CCC1=C[C@@H]2CN(C1)Cc1c([nH]c3ccccc13)[C@@](C(=O)OC)(c1cc3c(cc1OC)N(C)[C@H]1[C@@](O)(C(=O)OC)[C@H](OC(C)=O)[C@]4(CC)C=CCN5CC[C@]31[C@@H]54)C2 [VINORELBINE]
Not Active: [1] | Substance-P receptor | Histamine H2 receptor | Mu-type opioid receptor | [2]
